Data as given in patent US9636299B2, “Method for treating diabetic retinopathy” (XAVIER UNIVERSITY OF LOUISIANA, priority 2012, dated 2017).
Residues, ends and D or L forms follow the SMILES beside them.

Key:
Assay type in all cases: in vivo, mouse
zona occludin 1 (ZO-1) = experiment: Streptozotocin-induced diabetic mice, retinal ZO-1 immunohistochemistry; settings: 14 consecutive days, vs untreated diabetic
Procedure: (§1) Streptozotocin (STZ) induced diabetes. Twelve week old C57Bl/6 mice were used for this study. Mice were induced to have diabetes by intraperitoneal injection of 170 μg/g of streptozotocin (Sigma Aldrich, St. Louis, Mo.). Controls were injected with a vehicle (0.01M sodium citrate buffer). On the third day after STZ treatment, mice tail veins were bled to test the hyperglycemic status using blood sugar detection kit (Lifescan; Johnson & Johnson, Milpitas, Calif.). Mice with blood sugar levels of >300 mg/dL on the third day after STZ treatment were considered diabetic. Eye drop treatment containing 1% apoEdp or vehicle PBS was continued 4 times a day for 14 consecutive days. Intra-peritoneal (i/p) injection containing 40 mg/kg of apoEdp or vehicle control PBS was administered once daily for 14 consecutive days. On the 15th day post-treatment, mice were euthanized, their eyes enucleated, and the retinas dissected out to use for mRNA or Western blot analysis.
Immunohistochemistry. […]
To investigate the effect of apoEdp on attenuation of ZO-1 loss, immunohistochemical detection of ZO-1 was performed in formalin-fixed de-paraffinized sections of mouse retinas of different experimental groups. […] The number of positive cells was determined in the high-power field (×400) for the retinas.

VEGF = experiment: Streptozotocin-induced diabetic mice, retinal VEGF protein by Western blot; settings: 14 days
Procedure: as §1
Upregulation of VEGF expression is reported as one of the reasons for the loss of tight junction proteins in diabetic mice (20).
Increased vascular permeability in diabetic retinopathy (DR) is reported to result in a concomitant increase of VEGF. The VEGF pathway is known to play a role in breakdown of the BRB through a mechanism involving the down regulation of tight junction proteins in the retinal microvasculature (20).

occludin = experiment: Streptozotocin-induced diabetic mice, retinal occludin mRNA by real-time RT-PCR; settings: 14 days, vs diabetic non-treated
Procedure: RNA Extraction, Reverse Transcription, & PCR. Following euthanasia, mouse eyes were enucleated and placed immediately into RNAlater® RNA stabilization reagent (Qiagen, Hilden, Germany). Intraocular fluids were aspirated and pooled, and total cellular RNA was isolated using an RNeasy® Mini Kit (Qiagen) according to the manufacturer's instructions. Gene expression was measured at RNA level per 100 ng of total RNA using one-step RT-PCR kit (Bio-Rad, Hercules, Calif.). Four host genes (mouse GAPDH, mouse MMP2, mouse HPSE-1 (heparanase-1), and mouse MMP9) were analyzed to confirm relative quantitative expression levels. The primer pairs used were specifically designed and synthesized by Qiagen GmbH, Hilden, Germany (Quantitech Primer assay kit, for each host gene, catalog numbers QT01658692, QT00088396, QT00009555, and QT00040040, respectively). One-step Real-time quantitative RT-PCR reactions were performed in a 50-μL volume containing a solution of 1× supermix (iQ SYBR Green; Bio-Rad, Hercules, Calif.), 1 μM mix of forward and reverse primers, and 5 μL total RNA. A four-step protocol was used: denaturation, 3 minutes at 95° C.; amplification and quantification, 40 cycles of 15 seconds at 95° C. followed by 30 seconds at 60° C.; melting curve, 60 to 95° C. with a heating rate of 0.5° C. per second; followed by cooling (MyiQ Single Color Real-Time PCR Detection System; Bio-Rad). […]

CC(=O)N[C@@H](CC(C)C)C(=O)N[C@@H](CCCNC(=N)N)C(=O)N[C@@H](CCCCN)C(=O)N[C@@H](CC(C)C)C(=O)N[C@@H](CCCNC(=N)N)C(=O)N[C@@H](CCCCN)C(=O)N[C@@H](CCCNC(=N)N)C(=O)N[C@@H](CC(C)C)C(=O)N[C@@H](CC(C)C)C(=O)N[C@@H](CC(C)C)C(=O)N[C@@H](CCCNC(=N)N)C(=O)N[C@@H](CCCCN)C(=O)N[C@@H](CC(C)C)C(=O)N[C@@H](CCCNC(=N)N)C(=O)N[C@@H](CCCCN)C(=O)N[C@@H](CCCNC(=N)N)C(=O)N[C@@H](CC(C)C)C(=O)N[C@@H](CC(C)C)C(N)=O [apoEdp, Ac-LRKLRKRLLLRKLRKRLL-amide] (Ac-LRKLRKRLLLRKLRKRLL-NH2)
Number of ZO-1 positive cells in retina (high-power field ×400) (zona occludin 1 (ZO-1); i/p injections 40 mg/kg): significantly increased the number of positive cells | Number of ZO-1 positive cells in retina (high-power field ×400) (zona occludin 1 (ZO-1); topical 1% apoEdp drops): significantly increased the number of positive cells | VEGF expression of retina (VEGF; eye drop treatment, vs untreated diabetic): not significantly different from untreated diabetic mice | VEGF expression of retina (VEGF; i/p injection of apoEdp, vs diabetic untreated): significantly reduced VEGF expression | Down-regulation of occludin-specific mRNA in retina (occludin; 1% apoEdp eye drop 4 times a day): significantly inhibited the down-regulation | Down-regulation of occludin-specific mRNA in retina (occludin; i/p injection 40 mg/kg daily): significantly inhibited the down-regulation
